In US12516288B2, “Method for producing enteric neural precursors” (Kyoto University, priority 2018, dated 2026):
Where a name gives a salt, the structure may show the parent alone. Read-outs that look alike come from different tables or passages of the source.

What was measured:
[1] = tested on: artificial intestinal tract formed from an intestinal organoid; assay: Organ bath assay: contractile and relaxant responses of artificial intestinal tract to electrical stimulation; set-up: species or system human
vagal neural crest cells = assay: Study on composition of enteric neural precursor medium (NRG1 and/or GDNF not added); assay type: cell-based, human; details: for cell proliferation: enteric neural precursor medium without the named factor (factor-free conditions)
Procedure: The medium was aspirated and replaced with PBS. Then, the cells were detached using a cell scraper. The detached cell mass was dissociated by pipetting in Accutase® (Innovative Cell Technologies, Inc.). Then, MACS® Buffer (Miltenyi Biotec) was added thereto, and the cells were prepared into single cells through a 40 µm cell strainer. The obtained cell suspension was centrifuged at 300×g for 3 minutes. Then, the supernatant was removed, and the cells were suspended in an enteric neural precursor medium. The enteric neural precursor medium used was a mixture of solutions A and B of Stem Fit® AK03N containing 10 μM SB431542 (FUJIFILM Wako Pure Chemical Corp.), 1 μM CHIR99021 (Axon MedChem), 1 μM retinoic acid (FUJIFILM Wako Pure Chemical Corp.), 100 ng/mL neuregulin 1 (NRG1) (PeproTech, Inc.) and […] glial cell-derived neurotrophic factor (GDNF) (FUJIFILM Wako Pure Chemical Corp.). For adherent culture, Matrigel® (Corning Inc.) was added at 2% to the cell suspension, which was then cultured using a multiwell plate (Corning Inc.). For suspension culture, a multiwell plate (Corning Inc.) treated for low cell adhesion was used. The culture in both cases was carried out at 37° C. under 5% CO2.
Vagal neural crest cells were cultured in an enteric neural precursor medium under the same conditions as in Test Example 4 except that NRG1 and/or GDNF was not added to the enteric neural precursor medium. The cells were observed under a fluorescence microscope (BZ-X700, Keyence Corp.). Also, flow cytometry analysis was conducted by the same method as in Test Example 5.

## COC(=O)[C@@H](N)CCCN=C(N)N[N+](=O)[O-].Cl [NG-nitro-L-arginine methyl ester hydrochloride]
[1]; after atropine, phenoxybenzamine, propranolol, concentration not given
  relaxant response dependent on electrical stimulation: disappeared

## CN1[C@@H]2CC[C@H]1C[C@@H](OC(=O)C(CO)c1ccccc1)C2 (some centres unmarked) [atropine sulfate monohydrate]
[1]
  contractile response to electrical stimulation: partially canceled

## CC(COc1ccccc1)N(CCCl)Cc1ccccc1 (centres unmarked) [phenoxybenzamine hydrochloride]
[1]
  contractile response to electrical stimulation: partially canceled

## CC(C)NCC(O)COc1cccc2ccccc12 (centres unmarked) [propranolol hydrochloride]
[1]; addition of 10 μM, strip of artificial intestinal tract in Krebs solution
  contractile response to electrical stimulation: partially canceled

## NC1=N[C@H](O)[C@H]2[C@H]3O[C@]4(O)O[C@@H]([C@@H](O)[C@@]2(N1)[C@@H]4O)[C@]3(O)CO [tetrodotoxin]
[1]
  cancelation of the contractile response by atropine, phenoxybenzamine or propranolol: disappeared

B1: GDNF: factor encoded by GDNF gene; acts as an agonist of GFRα1 and RET (protein, UniProt P39905 78-211, looked up)
Glial cell line-derived …: SPDKQMAVLPRRERNRQAAAANPENSRGKGRRGQRGKNRGCVLTAIHLNVTDLGLGYETKEELIFRYCSGSCDAAETTYDKILKNLSRNRRLVSDKVGQACCRPIAFDDDLSFLDDNLVYHILRKHSAKRCGCI
Vagal neural crest cells
  cell proliferation: slower than that under the conditions involving GDNF

B2: NRG1: EGF-like growth factor encoded by NRG1 gene; activates downstream signaling by binding to ERBB3 and ERBB4 (protein, listed as Homo sapiens)
chain: MSERKEGRGKGKGKKKERGSGKKPESAAGSQSPALPPRLKEMKSQESAAGSKLVLRCETSSEYSSLRFKWFKNGNELNRKNKPQNIKIQKKPGKSELRINKASLADSGEYMCKVISKLGNDSASANITIVESNEIITGMPASTEGAYVSSESPIRISVSTEGANTSSSTSTSTTGTSHLVKCAEKEKTFCVNGGECFMVKDLSNPSRYLCKCPNEFTGDRCQNYVMASFYKHLGIEFMEAEELYQKRVLTITGICIALLVVGIMCVVAYCKTKKQRKKLHDRLRQSLRSERNNMMNIANGPHHPNPPPENVQLVNQYVSKNVISSEHIVEREAETSFSTSHYTSTAHHSTTVTQTPSHSWSNGHTESILSESHSVIVMSSVENSRHSSPTGGPRGRLNGTGGPRECNSFLRHARETPDSYRDSPHSERYVSAMTTPARMSPVDFHTPSSPKSPPSEMSPPVSSMTVSMPSMAVSPFMEEERPLLLVTPPRLREKKFDHHPQQFSSFHHNPAHDSNSLPASPLRIVEDEEYETTQEYEPAQEPVKKLANSRRAKRTKPNGHIANRLEVDSNTSSQSSNSESETEDERVGEDTPFLGIQNPLAASLEATPAFRLADSRTNPAGRFSTQEEIQARLSSVIANQDPIAV
Vagal neural crest cells; enteric neural precursor medium without the named factor
  cell number necessary for conducting flow cytometry: not obtained
Vagal neural crest cells
  cell proliferation: very slow
